Where “and” joins values, the source holds several entries; their conditions need not be identical. Equal values may be shown once.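 In this assay, cells in 96-well plates receive the compound at five concentrations for 48 hours. Endpoints are linearly interpolated between the surrounding concentrations. GI50: concentration for 50% inhibition of growth. At the TGI there is no net growth.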
How the values were obtained:
Test in all cases: inhibition of tumour cell growth, NCI panel, 48 h
[1] = system: IGROV1 ovarian
[2] = system: CAKI-1 renal
[3] = system: SK-OV-3 ovarian
[4] = system: SNB-19 CNS
[5] = system: MDA-MB-435
[6] = system: SW-620 colon
[7] = system: U251 CNS
[8] = system: DU-145 prostate
[9] = system: SF-295 CNS
[10] = system: SF-268 CNS

| Structure (SMILES) | TGI [1] | TGI [2] | TGI [3] | TGI [4] | TGI [5] | TGI [6] | TGI [7] | TGI [8] | TGI [9] | TGI [10] [µM] | GI50 [1] [µM] | GI50 [2] | GI50 [3] [µM] | GI50 [4] [µM] | GI50 [5] | GI50 [6] | GI50 [7] | GI50 [8] | GI50 [9] [µM] | GI50 [10] [µM] |
| --- | --- | --- | --- | --- | --- | --- | --- | --- | --- | --- | --- | --- | --- | --- | --- | --- | --- | --- | --- | --- |
| Nc1nc(C(=O)O)c(N=Nc2ccccc2)c(=O)[nH]1 | > 100 µM | > 100 µM | > 100 µM | > 100 µM | > 100 µM | > 100 µM | > 100 µM | > 100 µM | > 100 µM | > 100 | – | – | – | – | – | – | – | – | – | – |
| O=C(Cc1ccccc1)C(c1ccccc1)S(=O)(=O)c1ccccc1 (stereo not drawn) | > 100 µM | > 100 µM | > 100 µM | > 100 µM | – | > 100 µM | > 100 µM | – | > 100 µM | > 100 | – | – | – | – | – | – | – | – | – | – |
| Clc1nc(Cl)c2ncn(CCOCCn3cnc4c(Cl)nc(Cl)nc43)c2n1 | 0.408 µM | 0.453 µM | 2.77 µM | 0.968 µM | 0.466 µM | 0.44 µM | 0.313 µM | 0.343 µM | 2.83 µM | 0.347 | 0.207 | 0.197 µM | 1.44 | 0.448 | 0.204 µM | 0.212 µM | 0.174 µM | 0.196 µM | 1.33 | 0.194 |
| O=c1[nH]c2ccccc2n1C1CCN(CCCC(c2ccc(F)cc2)c2ccc(F)cc2)CC1 | 3.86 µM and 32.4 µM | 2.96 µM and 20.9 µM | 3.12 µM and 24.9 µM | 3.29 µM and 28.8 µM | 3.06 µM and 11.5 µM | 3.41 µM and 13.8 µM | 2.9 µM and 14.1 µM | 3.24 µM and 28.5 µM | 3.02 µM and 14.5 µM | 28.9 | 1.96 | 1.39 µM and 7.46 µM | 1.56 | 1.67 | 1.54 µM and 4.49 µM | 1.75 µM and 4.5 µM | 1.49 µM and 5.24 µM | 1.73 µM and 13.7 µM | 1.5 | – |
| CC1=NNC(=S)NCCCN2CCN(CCCNC(=S)NN=C(C)C=NNC(=S)NCCCN3CCN(CCCNC(=S)NN=C1)CC3)CC2 | > 100 µM | > 100 µM | > 100 µM | > 100 µM | > 100 µM | > 100 µM | > 100 µM | > 100 µM | > 100 µM | > 100 | – | – | – | – | – | – | – | – | – | – |
| O=C1/C(=C/c2ccccc2O)N=C(c2ccccc2)N1c1cc(C(F)(F)F)ccc1Cl | 64.3 µM | 38.5 µM | > 100 µM | > 100 µM | > 100 µM | > 100 µM | 61.9 µM | > 100 µM | 52.6 µM | 97.4 | 14.3 | 14.3 µM | 43.7 | 31.6 | 22.1 µM | > 100 µM | 23.3 µM | 43.8 µM | 23.2 | 26.2 |
| CC(N)CC(=O)O (stereo not drawn) | > 5000 µM | – | > 5000 µM | – | – | > 5000 µM | > 5000 µM | – | > 5000 µM | > 5000 | – | – | – | – | – | – | – | – | – | – |
| Nc1nc2ccccc2c2c1S(=O)(=O)c1ccc(Cl)cc1C2=O | > 50 µM | > 50 µM | 44.8 µM | > 50 µM | > 50 µM | 2.25 µM | 18.3 µM | > 50 µM | > 50 µM | > 50 | 1.7 | 1.59 µM | 6.9 | 2.52 | 1.65 µM | 1.02 µM | 1.79 µM | 2.13 µM | 2.22 | 1.83 |
| C#CCNC(=O)NC(CCCCNC(=O)OCc1ccccc1)C(=O)OCc1ccccc1 (stereo not drawn) | > 100 µM | > 100 µM | > 100 µM | > 100 µM | 57.1 µM | > 100 µM | > 100 µM | > 100 µM | > 100 µM | > 100 | – | – | – | – | – | – | – | – | – | – |
| COc1cc(/C=C/C(=O)O[C@H]2[C@H](O[C@@H]3O[C@@H](C)[C@H](O)[C@@H](O)[C@H]3O)[C@@H](O)[C@H](OCCc3ccc(O)c(O)c3)O[C@@H]2COC2OCC(O)(CO)C2O)ccc1O (stereo partly drawn) | > 100 µM | > 100 µM | > 100 µM | > 100 µM | 35.2 µM | 46 µM | > 100 µM | > 100 µM | > 100 µM | > 100 | > 100 | > 100 µM | > 100 | > 100 | 17.3 µM | 20.1 µM | > 100 µM | > 100 µM | > 100 | 49.3 |
| COc1ccc(COc2cc3oc(=O)c4cc(C(C)O)ccc4c3cc2OC)cc1 (stereo not drawn) | > 83.1 µM | > 51.1 µM | 45.8 µM | 99.3 µM | > 22.9 µM | > 100 µM | > 71.6 µM | > 100 µM | 65.5 µM | 40.5 | 11.5 | 15.3 µM | 13.2 | 16 | 4.33 µM | > 22.4 µM | 10.5 µM | 45.5 µM | 11.6 | 9.89 |
| C=CCN(CC=C)C(=O)[C@H](CC)[C@@H]1CC[C@@H](C)[C@@H]([C@H](C)[C@@H](O)[C@@H](C)C(=O)[C@H](CC)C2O[C@]3(C=C[C@@H](O)[C@]4(CC[C@@](C)([C@H]5CC[C@](O)(CC)[C@H](C)O5)O4)O3)[C@H](C)C[C@@H]2C)O1 (stereo partly drawn) | 8.53 µM | 7.63 µM | > 100 µM | > 100 µM | 8.5 µM | 10.6 µM | 10.1 µM | 5.61 µM | 5.23 µM | 34.8 | 2.41 | 1.75 µM | 3.51 | 3.08 | 2.71 µM | 2.97 µM | 2.78 µM | 2.46 µM | 1.87 | 3.27 |
| COc1ccc2c(c1)C(=O)c1c-2c(=O)n(CCCN(C)C)c2cc(OC)c(OC)cc12 | 21.8 µM | > 100 µM | 19.5 µM | 20.6 µM | 23.3 µM | 20.8 µM | 18.9 µM | 10.9 µM | 0.774 µM | 15.2 | 10.1 | 1.48 µM | 5.15 | 3.3 | 11.3 µM | 1.71 µM | 1.23 µM | 0.623 µM | 0.158 | 0.427 |
| O=C(CO)C1CC2C=CC1C2 (stereo not drawn) | > 100 µM | > 100 µM | > 100 µM | > 100 µM | – | > 100 µM | > 100 µM | – | > 100 µM | > 100 | – | – | – | – | – | – | – | – | – | – |
| O=C1C(Sc2ccc3ccccc3c2)=C(Sc2ccc3ccccc3c2)C(=O)c2ccccc21 | – | – | 68.2 µM | 20.3 µM | 31.5 µM | 16.5 µM | 19.1 µM | 84.4 µM | – | 28.7 | – | – | – | – | – | – | – | – | – | – |

Source: PubChem BioAssay (NCI)
